Results reported in the supplement of paper PMC10883282.

Tests used:
Assay in all cases: relative viability vs DMSO control (72 h) (fraction); higher = more viable cells
RD-ES = test system: RD-ES
Outline: (§1)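 Sarcoma cell lines were grown in 384-well plates seeded toward 80–90% confluence and exposed 24 h later to serially diluted compound. After 72 h at 37 °C and 5% CO2, with 0.1% DMSO vehicle and a 5 µM positive control on the plates, ATPLite was read. Relative viability, given as percent growth averaged over up to triplicate wells, was rescaled so that 1 is full and 0 is none.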

HS729 = test system: HS729
Outline: as §1

RD = test system: RD
Outline: as §1

HT1080 = test system: HT1080
Outline: as §1

SW684 = test system: SW684
Outline: as §1

SW1353 = test system: SW1353
Outline: as §1

KHOS-240S = test system: KHOS-240S
Outline: as §1

SYO-1 = test system: SYO-1
Outline: as §1

KHOS-NP = test system: KHOS-NP
Outline: as §1

SW872 = test system: SW872
Outline: as §1

SK-LMS-1 = test system: SK-LMS-1
Outline: as §1

G401 = test system: G401
Outline: as §1

CC1(C)CC=C(c2nc(C3CC(C)(C)OC(C)(C)C3)ccc2NC(=O)c2nc(C#N)c[nH]2)CC1 [Edicotinib]
Settings | relative viability
G401, 0.00017 µM | 1.02
G401, 0.00051 µM | 0.99
G401, 0.00152 µM | 1
G401, 0.00457 µM | 1.01
G401, 0.01372 µM | 1.04
G401, 0.04115 µM | 0.9919
G401, 0.1235 µM | 1.02
G401, 0.3704 µM | 1
G401, 1.111 µM | 0.952
G401, 3.333 µM | 0.989
G401, 10 µM | 0.929
HS729, 0.00017 µM | 1
HS729, 0.00051 µM | 0.931
HS729, 0.00152 µM | 0.953
HS729, 0.00457 µM | 0.909
HS729, 0.01372 µM | 0.89
HS729, 0.04115 µM | 0.902
HS729, 0.1235 µM | 0.924
HS729, 0.3704 µM | 0.9
HS729, 1.111 µM | 0.894
HS729, 3.333 µM | 0.933
HS729, 10 µM | 0.999
HT1080, 0.00017 µM | 1.03
HT1080, 0.00051 µM | 1.07
HT1080, 0.00152 µM | 1.03
HT1080, 0.00457 µM | 1.041
HT1080, 0.01372 µM | 1.04
HT1080, 0.04115 µM | 1.03
HT1080, 0.1235 µM | 1.037
HT1080, 0.3704 µM | 1.021
HT1080, 1.111 µM | 0.9787
HT1080, 3.333 µM | 1.019
HT1080, 10 µM | 0.993
KHOS-240S, 0.00017 µM | 1.03
KHOS-240S, 0.00051 µM | 1.01
KHOS-240S, 0.00152 µM | 1.02
KHOS-240S, 0.00457 µM | 1.05
KHOS-240S, 0.01372 µM | 1.01
KHOS-240S, 0.04115 µM | 1.05
KHOS-240S, 0.1235 µM | 1.05
KHOS-240S, 0.3704 µM | 1.05
KHOS-240S, 1.111 µM | 1.118
KHOS-240S, 3.333 µM | 1.06
KHOS-240S, 10 µM | 0.841
KHOS-NP, 0.00017 µM | 1.03
KHOS-NP, 0.00051 µM | 1.03
KHOS-NP, 0.00152 µM | 1.04
KHOS-NP, 0.00457 µM | 1.04
KHOS-NP, 0.01372 µM | 1.03
KHOS-NP, 0.04115 µM | 1.04
KHOS-NP, 0.1235 µM | 1.05
KHOS-NP, 0.3704 µM | 1.04
KHOS-NP, 1.111 µM | 1.05
KHOS-NP, 3.333 µM | 0.996
KHOS-NP, 10 µM | 0.974
RD, 0.00017 µM | 1.123
RD, 0.00051 µM | 1.09
RD, 0.00152 µM | 1.12
RD, 0.00457 µM | 1.07
RD, 0.01372 µM | 1.07
RD, 0.04115 µM | 1.12
RD, 0.1235 µM | 1.1
RD, 0.3704 µM | 1.1
RD, 1.111 µM | 1.07
RD, 3.333 µM | 1.05
RD, 10 µM | 1.06
RD-ES, 0.00017 µM | 0.9975
RD-ES, 0.00051 µM | 1.01
RD-ES, 0.00152 µM | 1.02
RD-ES, 0.00457 µM | 1.02
RD-ES, 0.01372 µM | 1.01
RD-ES, 0.04115 µM | 0.999
RD-ES, 0.1235 µM | 1.021
RD-ES, 0.3704 µM | 1.01
RD-ES, 1.111 µM | 1.01
RD-ES, 3.333 µM | 0.987
RD-ES, 10 µM | 0.968
SK-LMS-1, 0.00017 µM | 1.01
SK-LMS-1, 0.00051 µM | 1.02
SK-LMS-1, 0.00152 µM | 1.04
SK-LMS-1, 0.00457 µM | 1.04
SK-LMS-1, 0.01372 µM | 1.07
SK-LMS-1, 0.04115 µM | 1.05
SK-LMS-1, 0.1235 µM | 0.995
SK-LMS-1, 0.3704 µM | 0.997
SK-LMS-1, 1.111 µM | 0.929
SK-LMS-1, 3.333 µM | 1.04
SK-LMS-1, 10 µM | 1.013
SW684, 0.00017 µM | 1.13
SW684, 0.00051 µM | 1.14
SW684, 0.00152 µM | 1.16
SW684, 0.00457 µM | 1.15
SW684, 0.01372 µM | 1.13
SW684, 0.04115 µM | 1.1
SW684, 0.1235 µM | 1.11
SW684, 0.3704 µM | 1.17
SW684, 1.111 µM | 1.24
SW684, 3.333 µM | 1.14
SW684, 10 µM | 1.16
SW872, 0.00017 µM | 1.01
SW872, 0.00051 µM | 0.994
SW872, 0.00152 µM | 0.992
SW872, 0.00457 µM | 1
SW872, 0.01372 µM | 1.01
SW872, 0.04115 µM | 0.997
SW872, 0.1235 µM | 1.01
SW872, 0.3704 µM | 1.04
SW872, 1.111 µM | 1.06
SW872, 3.333 µM | 1.07
SW872, 10 µM | 1.08
SW1353, 0.00017 µM | 0.973
SW1353, 0.00051 µM | 0.987
SW1353, 0.00152 µM | 0.958
SW1353, 0.00457 µM | 0.9936
SW1353, 0.01372 µM | 0.9624
SW1353, 0.04115 µM | 0.965
SW1353, 0.1235 µM | 0.96
SW1353, 0.3704 µM | 1.03
SW1353, 1.111 µM | 1.09
SW1353, 3.333 µM | 1.08
SW1353, 10 µM | 1.098
SYO-1, 0.00017 µM | 0.931
SYO-1, 0.00051 µM | 0.925
SYO-1, 0.00152 µM | 0.919
SYO-1, 0.00457 µM | 0.96
SYO-1, 0.01372 µM | 0.963
SYO-1, 0.04115 µM | 0.94
SYO-1, 0.1235 µM | 0.961
SYO-1, 0.3704 µM | 1.01
SYO-1, 1.111 µM | 1.03
SYO-1, 3.333 µM | 0.981
SYO-1, 10 µM | 1.04
